We go through three compounds from patent publication US7078389B2, “Chemically modified oligonucleotide for site-directed mutagenesis” (priority 1993, dated 2006).

Data set [1] has as its system supF gene (250 bp fragment). As to the kind of experiment: Triplex binding assay (32P-labelled oligonucleotide, gel electrophoresis). Details: species or system E. coli. To be noted: for Binding of oligonucleotide to supF gene fragment: 32P-labelled oligomer 6×10^−8 M, oligomer:supF about 1:1, 2 hours at 37 degrees; for Competition with 32P-labelled AG10 for binding to supF: unlabelled competitor at 200-fold molar excess. As for the experimental part:
The target gene chosen was supF, an E. coli amber suppressor tyrosine tRNA gene, contained within the genome of a lambda phage vector, lambda supF as shown in FIG. 1. A 10 base homopurine oligonucleotide AG10 (5′AGGAAGGGGG 3′) capable of forming a triple strand at positions 167–176 in the supF gene was identified.
The 250 bp supF target was generated from lambda supF using the polymerase chain reaction. Each oligo (200 ng) was labelled with 50 μCi of gamma-^32P-ATP (Amersham, Arlington Heights, Ill.) and separated from unreacted gamma^32P-ATP by passage through a G-25 spin column (Boehringer Mannheim, Indianapolis, Ind.). The concentration of oligomer in the reaction mixture was 6×10^−8 M and the oligomer:supF ratio was approximately 1:1 on a molar basis. When present, competitors were used at 200-fold molar excess.
Following the 2 hour binding step, reaction mixtures were run on a 4% acrylamide gel in 90 mM Tris base, 90 mM boric acid, 20 mM MgCl2 with a 20% acrylamide plug. A 100 bp ladder (BRL, Bethesda, Md.) was end-labelled as described for oligomers and run on gels as a size reference. Following a 4 hour run at constant voltage (150 V), the gel was visualized by autoradiography for 1 hour using Kodak X-AR film. […] To assay for triplex formation, ^32P-labeled oligonucleotides, either AG10 (^5 AGGAAGGGGG^3) (SEQ ID NO:2) or the reverse sequence oligomer (GA10), were incubated with a […] double-stranded fragment containing the entire supF gene. The products of the binding reactions were visualized by polyacrylamide gel electrophoresis and autoradiography.
When no supF target DNA was present, there was no band observed at this position. […] In lanes 5–8, no binding of the ^32P-labelled GA10 to supF was detected: GA10 alone without supF; GA10 plus supF; GA10 plus supF with excess unlabelled GA10; GA10 plus supF with excess AG10.

Another data set has as its system supF gene. The settings on record: free psoralen plus UVA, published data, FIG. 2B/5B; cited from earlier work.

Entries after “also recorded” stand apart in the source; their conditions may differ. {Pso} = 4'-hydroxymethyl-4,5',8-trimethylpsoralen through a two-carbon linker arm and a phosphodiester

Regarding “5′AGGAAGGGGG 3′ (DNA, 5' {Pso}, backbone not given here; triplex-forming oligonucleotide) [AG10, 10 base homopurine oligonucleotide capable of forming a triple strand at positions 167–176 in the supF gene]”, in data set [1], the “Binding of oligonucleotide to supF gene fragment” value is recorded as “Binding of labelled AG10 to the added supF DNA was demonstrated; also recorded: bound specifically to the supF gene” and the “Competition with 32P-labelled AG10 for binding to supF” value is on record as “competed with the ^32P-labelled AG10”. On to “5′ GGGGGAAGGA 3′ (DNA, 5' {Pso}, backbone not given here; triplex-forming reverse control oligonucleotide) [GA10]”, for which, in data set [1], the “Binding of oligonucleotide to supF gene fragment” value was “no binding; also recorded: failed to bind to supF; also recorded: did not bind” and the “Competition with 32P-labelled AG10 for binding to supF” value is “did not compete with AG10; also recorded: failed to bind to supF or to compete with AG10 for binding”. Turning to `COc1c2occc2cc2ccc(=O)oc12` [8-methoxypsoralen], the “Occurrence of supF mutations at base pair 167” value with supF gene is reported as “none of them occur at position 167; also recorded: none were found to occur at base pair 167”.
